# Reference: ChEMBL document CHEMBL1201862, “PubChem BioAssay data set” (2004)
#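 Growth conditions: 96-well plates. Treatment: test compound, 48 hours, 5 concentrations. Analysis: linear interpolation between bracketing concentrations; unreached endpoints set to highest concentration. GI50: concentration for 50% inhibition of growth.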 Calls of active or inactive are those of the source. Rule as the data show it: active = GI50 up to about 1.1 µM and inactive = higher.
# Key:
# Assay in all cases: growth of human tumour cells (NCI), 48 h
# [1] = tested on: HCT-116
# [2] = tested on: U-251
# [3] = tested on: OVCAR-5
# [4] = tested on: SR
# [5] = tested on: SN12C
# [6] = tested on: UACC-62
# [7] = tested on: PC-3
# [8] = tested on: TK-10
# [9] = tested on: EKVX
# [10] = tested on: OVCAR-8
# [11] = tested on: HT-29
# [12] = tested on: Hs-578T
# [13] = tested on: NCI-H522
# [14] = tested on: NCI/ADR-RES
# [15] = tested on: OVCAR-4
# [16] = tested on: CCRF-CEM
# [17] = tested on: K562
# [18] = tested on: OVCAR-3
# [19] = tested on: HOP-92
# [20] = tested on: SF-295
Compound,GI50 [1],GI50 [2],GI50 [3],GI50 [4],GI50 [5],GI50 [6],GI50 [7],GI50 [8],GI50 [9],GI50 [10],GI50 [11],GI50 [12],GI50 [13],GI50 [14],GI50 [15],GI50 [16],GI50 [17],GI50 [18],GI50 [19],GI50 [20]
CSc1cc(Cl)c(C(=O)Nc2ccccc2)cc1S(=O)(=O)n1ccnc1O,> 100 µM (inactive),> 100 µM (inactive),> 100 µM (inactive),> 100 µM (inactive),> 100 µM (inactive),> 100 µM (inactive),> 100 µM (inactive),> 100 µM (inactive),> 100 µM (inactive),> 100 µM (inactive),> 100 µM (inactive),> 100 µM (inactive),> 100 µM (inactive),> 100 µM (inactive),> 100 µM (inactive),> 100 µM (inactive),> 100 µM (inactive),> 100 µM (inactive),> 100 µM (inactive),
CC1(C)[C@@H]2CC[C@@]1(C)C1(S[S+]1[O-])C21Cc2ccccc2C1 (some centres undefined),14.7 µM (inactive),24.9 µM (inactive),20.6 µM (inactive),14.5 µM (inactive),18.1 µM (inactive),22.2 µM (inactive),17.9 µM (inactive),18.8 µM (inactive),23.8 µM (inactive),17.3 µM (inactive),17.9 µM (inactive),44.2 µM (inactive),15.8 µM (inactive),25.6 µM (inactive),15.6 µM (inactive),5.25 µM (inactive),17.4 µM (inactive),31.7 µM (inactive),23.3 µM (inactive),57.1 µM (inactive)
Nc1cccc(-c2cc(O)c3cc4c(cc3n2)OCO4)c1,0.389 µM (active),1.81 µM (inactive),> 100 µM (inactive),0.191 µM (active),4.59 µM (inactive),0.402 µM (active),0.644 µM (active),6.64 µM (inactive),3.27 µM (inactive),2.11 µM (inactive),1.74 µM (inactive),0.389 µM (active),0.273 µM (active),0.581 µM (active),> 61.9 µM (inactive),0.665 µM (active),0.792 µM (active),0.188 µM (active),1.02 µM (active),2.87 µM (inactive)
